One block for each molecule: values may come before it.
Assays:
[1] = Ex vivo biodistribution in Sprague-Dawley rats; details: for brain uptake: male SD rats (n=4);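 for all read-outs here: four rats in each time-point group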
[2] = MicroPET study in the brain of a nonhuman primate; assay type: in vivo, cynomolgus monkey; details: monkey 5.8 kg, 8.68 mCi/6 mL injected
Excerpt: The brain of a cynologmus monkey was scanned using a microPET scanner. The left panel is the MRI image. The middle panel is the co-registered the MRI and PET image. The right panel is the PET image. […] FIG. 74 presents a plot of the radiation in portions of the monkey brain as a function of time. […] It also has favorable clearance pharmacokinetics from the brain.

Aβ1-42 fibrils = biological target: T1, Aβ1-42 fibrils (Homo sapiens, UniProt P05067); assay: [125I]SIL23 competitive binding assay, Aβ1-42 fibrils; details: [125I]SIL23 competition, 95% confidence intervals in parentheses
T1 construct: Synthetic Aβ1-42 peptide (1 mg) (Bachem, Torrance, Calif.); purchased Bachem, Torrance, Calif; host or cells: synthetic peptide

tau fibrils = biological target: T2, tau fibrils (Homo sapiens, UniProt P10636); assay: [125I]SIL23 competitive binding assay, tau fibrils; details: [125I]SIL23 competition, 95% confidence intervals in parentheses
T2 construct: made in house; host or cells: BL21(DE3)RIL E. coli

α-synuclein fibrils = α-synuclein fibrils (Homo sapiens, UniProt P37840); assay: ThT fluorescence saturation binding to α-synuclein fibrils; design: made in house; host or cells: BL21(DE3)RIL E. coli

T1 sequence (P05067 672-713 limits assumed): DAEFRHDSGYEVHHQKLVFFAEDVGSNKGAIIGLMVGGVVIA
T2 sequence (P10636 560-692): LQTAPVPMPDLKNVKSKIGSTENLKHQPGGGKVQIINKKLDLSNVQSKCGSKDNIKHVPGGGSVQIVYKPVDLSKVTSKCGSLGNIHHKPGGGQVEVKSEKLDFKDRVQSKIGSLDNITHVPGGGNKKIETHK

Biodistribution ([1]; blood, 5 min, male Sprague-Dawley rats): 0.506 ± 0.040 I.D. %/gram
Biodistribution ([1]; blood, 30 min, male Sprague-Dawley rats): 0.369 ± 0.031 I.D. %/gram
Biodistribution ([1]; blood, 60 min, male Sprague-Dawley rats): 0.300 ± 0.015 I.D. %/gram
brain uptake ([1]; 5 min post i.v. injection): 0.953±0.115 % I.D./g
brain uptake ([1]; 30 min post i.v. injection): 0.287±0.046 % I.D./g
brain uptake ([1]; 60 min post i.v. injection): 0.158±0.014 % I.D./g
Biodistribution ([1]; fat, 5 min, male Sprague-Dawley rats): 0.155 ± 0.023 I.D. %/gram
Biodistribution ([1]; fat, 30 min, male Sprague-Dawley rats): 0.241 ± 0.042 I.D. %/gram
Biodistribution ([1]; fat, 60 min, male Sprague-Dawley rats): 0.293 ± 0.076 I.D. %/gram
Biodistribution ([1]; heart, 5 min, male Sprague-Dawley rats): 0.758 ± 0.052 I.D. %/gram
Biodistribution ([1]; heart, 30 min, male Sprague-Dawley rats): 0.377 ± 0.046 I.D. %/gram
Biodistribution ([1]; heart, 60 min, male Sprague-Dawley rats): 0.245 ± 0.010 I.D. %/gram
Biodistribution ([1]; kidney, 30 min, male Sprague-Dawley rats): 0.807 ± 0.086 I.D. %/gram
Biodistribution ([1]; kidney, 60 min, male Sprague-Dawley rats): 0.559 ± 0.053 I.D. %/gram
Biodistribution ([1]; liver, 5 min, male Sprague-Dawley rats): 2.198±0.111 I.D. %/gram
Biodistribution ([1]; liver, 30 min, male Sprague-Dawley rats): 1.349 ± 0.116 I.D. %/gram
Biodistribution ([1]; liver, 60 min, male Sprague-Dawley rats): 1.116±0.024 I.D. %/gram
decrease of liver uptake ([1]; liver, from 5 min to 60 min): about 50%
Biodistribution ([1]; lung, 5 min, male Sprague-Dawley rats): 1.149 ± 0.058 I.D. %/gram
Biodistribution ([1]; lung, 30 min, male Sprague-Dawley rats): 0.740 ± 0.038 I.D. %/gram
Biodistribution ([1]; lung, 60 min, male Sprague-Dawley rats): 0.485 ± 0.036 I.D. %/gram
ability to cross the blood-brain-barrier (BBB) ([1]; male Sprague-Dawley rats, i.v.): able to cross BBB
Biodistribution ([1]; muscle, 5 min, male Sprague-Dawley rats): 0.271 ± 0.005 I.D. %/gram
Biodistribution ([1]; muscle, 30 min, male Sprague-Dawley rats): 0.325 ± 0.030 I.D. %/gram
Biodistribution ([1]; muscle, 60 min, male Sprague-Dawley rats): 0.199 ± 0.016 I.D. %/gram
Biodistribution ([1]; pancreas, 5 min, male Sprague-Dawley rats): 1.007 ± 0.262 I.D. %/gram
Biodistribution ([1]; pancreas, 30 min, male Sprague-Dawley rats): 0.506 ± 0.066 I.D. %/gram
Biodistribution ([1]; pancreas, 60 min, male Sprague-Dawley rats): 0.522 ± 0.036 I.D. %/gram
Biodistribution ([1]; spleen, 5 min, male Sprague-Dawley rats): 0.659 ± 0.049 I.D. %/gram
Biodistribution ([1]; spleen, 30 min, male Sprague-Dawley rats): 0.400 ± 0.052 I.D. %/gram
Biodistribution ([1]; spleen, 60 min, male Sprague-Dawley rats): 0.386 ± 0.027 I.D. %/gram
brain uptake (microPET) [2]: high uptake in the brain
washout kinetics from the brain (microPET) [2]: good washout kinetics
Structure (SMILES): COc1ccc2c(c1)Sc1cc([N+](=O)[O-])ccc1N2 [[^11C]SIL5]

Ki (Aβ1-42 fibrils): 102 nM
Ki (tau fibrils): 173 nM
Structure (SMILES): O=[N+]([O-])c1ccc2c(c1)Sc1cc(Br)ccc1N2 [SIL22, 3-bromo-7-nitro-10H-phenothiazine]

Ki (Aβ1-42 fibrils): 71.5 nM
Ki (tau fibrils): 52.3 nM
Structure (SMILES): O=[N+]([O-])c1ccc2c(c1)Sc1ccccc1N2 [SIL3B, 3-nitro-10H-phenothiazine]

Further lines, the molecule ahead of its results:

Structure (SMILES): COc1ccc2c(c1)Sc1cc(N)ccc1N2C [Compound 13a, 7-methoxy-10-methyl-10H-phenothiazin-3-amine]
melting point: 141.6 to 142.9 °C

Structure (SMILES): Cc1ccc2c(c1)sc(-c1ccc(N(C)C)cc1)[n+]2C [ThT, Thioflavin T]
Bmax (α-synuclein fibrils): 5672 afu

Source: patent US20130315825A1, “TRICYCLIC HETEROAROMATIC COMPOUNDS AS ALPHA-SYNUCLEIN LIGANDS” (Washington University, priority 2012, published 2013)
